How the values were obtained:
IL-6, IL-8, and TNF-α [1] = test: Cytokine determination by ELISA in RSV A2-infected cells; format: cell-based; details: RSV A2 moi 1, 24 h, A18 25 mg/mL, BAY 11-7085 10 mg/mL (so in the source); for IL-6 production vs RSV-infected control cells: Hep-2, A549, J774A.1 cells; for TNF-α production vs RSV-infected control cells: J774A.1 macrophages; for IL-8 production vs RSV-infected control cells: epithelial cells (Hep-2, A549)
IL-6, IL-8, and TNF-α [2] = test: Cytokine determination by ELISA in TLR2/6 and TLR3 ligand-stimulated cells; format: cell-based; details: A549, Hep-2, J774A.1; TLR2/6 and TLR3 ligands for 6 h / 8 h (Fig. S3); A18 25, BAY 11-7085 10
NF-κB signaling pathway = test: NF-κB-LUC reporter gene assay in RSV A2-infected cells; format: cell-based; details: Hep-2, A549, J774A.1 cells infected with RSV A2 moi 1, 6 h; A18 25 μg/mL, BAY 11-7085 10 mg/mL (so in the source)
RSV A2 [3] = test: Virus yield inhibition assay, RSV A2; format: cell-based; details: human respiratory syncytial virus, moi 0.1, 24 h, virus yield by plaque assay
in vitro = format: cell-based; details: human (HEp-2, A549, HCLE, Calu-3); cat (CRFK)
RSV A2 [4] = test: Immunofluorescence, RSV gF expression in infected cells; format: cell-based, Human RSV; details: RSV A2 moi 1, 25 μg/mL of A18, 24 h p.i.
SARS-CoV-2 [5] = format: cell-based
RSV A2 [6] = test: RSV qRT-PCR assay (viral RNA synthesis); format: cell-based, Human RSV; details: A549 and Hep-2 cells, A18 25 mg/mL (so in the source), 6 h, 15 h and 24 h p.i.
RSV A2 [7] = test: Adsorption and penetration assay, RSV A2; format: cell-based, Human RSV; details: A549 cells
HSV-1 KOS [8] = test: Adsorption and penetration assay, HSV-1 KOS; format: cell-based; details: HCLE cells
SARS-CoV-2 [9] = test: Adsorption and penetration assay, SARS-CoV-2; format: cell-based; details: calu-3 cells
RSV line 19 and A2 = test: Pulmonary RSV infection in mouse model; format: in vivo, Balb/C mice
[10] = tested on: IL-6, IL-4, IL-17A, IFN-γ; test: Pulmonary cytokines qRT-PCR in RSV-infected mice; format: in vivo, Balb/C mice; details: RSV-infected mice treated with A18, day 8 p.i.
HSV-1 KOS [11] = tested on: HSV-1 KOS
HSV-1 Field [12] = tested on: HSV-1 Field
HSV-1 B2006 [13] = tested on: HSV-1 B2006
SARS-CoV-2 [14] = tested on: SARS-CoV-2
Canine Coronavirus [15] = tested on: Canine Coronavirus
[16] = tested on: airway hyperreactivity (AHR); set-up: method as in ref 14 = [14]; details: i.p. (6 mg/kg/day) and i.n. (3 mg/kg/day), mouse models of steroid-resistant and severe asthma; cited from earlier work
SARS-CoV-2 spike protein = tested on: SARS-CoV-2 spike protein; set-up: method as in ref 37 = [37]; details: molecular docking and dynamics simulation; cited from earlier work
RSV Line 19 = test: microbe, parasite or virus in culture; details: human respiratory syncytial virus
HSV-1 KOS [17] = test: microbe, parasite or virus in culture; details: Human alphaherpesvirus 1, HCLE, 24 h
HSV-1 Field [18] = test: microbe, parasite or virus in culture; details: Human alphaherpesvirus 1, HCLE, 24 h
HSV-1 B2006 [19] = test: microbe, parasite or virus in culture; details: Human alphaherpesvirus 1, HCLE, 24 h
SARS-CoV-2 [20] = test: microbe, parasite or virus in culture; details: Severe acute respiratory syndrome coronavirus 2, Calu-3, 24 h
Canine Coronavirus [21] = test: microbe, parasite or virus in culture; details: Alphacoronavirus 1, CRFK, 24 h
[22] = tested on: SARS-CoV-2 viral main protease; set-up: method as in ref 36 = [36]; details: in silico finding; compounds from E. purpurea; cited from earlier work

CC(C)(C)c1ccc(S(=O)(=O)/C=C/C#N)cc1 [BAY 11-7085, reference compound]
IL-6 production vs RSV-infected control cells (IL-6, IL-8, and TNF-α [1]): significantly reduced | TNF-α production vs RSV-infected control cells (IL-6, IL-8, and TNF-α [1]): significantly reduced | IL-8 production vs RSV-infected control cells (IL-6, IL-8, and TNF-α [1]): significantly reduced | IL-6 production in TLR ligand-stimulated cells (IL-6, IL-8, and TNF-α [2]): significantly inhibited | IL-8 production in TLR ligand-stimulated cells (IL-6, IL-8, and TNF-α [2]): significantly inhibited | TNF-a production in TLR ligand-stimulated cells (IL-6, IL-8, and TNF-α [2]): significantly inhibited | NF-κB activation (NF-κB-LUC luciferase activity) (NF-κB signaling pathway): strongly inhibited

Oc1cc(O)c2cc(O)c(-c3ccc(O)c(O)c3)[o+]c2c1 [A18, Cyanidin chloride]
EC50 (RSV A2 [3]; RSV A2 in A549 cells): 8.5 ± 0.1 µg/mL | EC50 (RSV A2 [3]; RSV A2 in HEp-2 cells): 3 ± 0.06 µg/mL | CC50 at 24 h (in vitro): > 200 µg/mL | infected and treated cells expressing gF (RSV A2 [4]; A549 cells, infected control 93%): 23% | infected and treated cells expressing gF (RSV A2 [4]; HEp-2 cells, infected control 96%): 10% | infected and treated cells expressing Spike protein (SARS-CoV-2 [5]): 7% | relative contents of viral RNA vs untreated infected cells (RSV A2 [6]): significantly reduced | virus adsorption: virus yield after treatment during binding stage (RSV A2 [7]; RSV A2 moi 1, 25 μg/mL of A18, 1 h at 4 °C): significant reduction of viral plaque formation | virus internalization: viral infectivity after treatment during internalization (RSV A2 [7]; RSV A2 moi 1, 25 μg/mL of A18, 2 h at 37 °C): did not reduce viral infectivity | virus adsorption: virus yield after treatment during binding stage (HSV-1 KOS [8]; HSV-1 KOS moi 1, 25 μg/mL of A18, 1 h at 4 °C): significant reduction of viral plaque formation | virus internalization: viral infectivity after treatment during internalization (HSV-1 KOS [8]; HSV-1 KOS moi 1, 25 μg/mL of A18, 2 h at 37 °C): did not reduce viral infectivity | virus adsorption: virus yield after treatment during binding stage (SARS-CoV-2 [9]; SARS-CoV-2 moi 1, 25 μg/mL of A18, 1 h at 4 °C): significant reduction of viral plaque formation | virus internalization: viral infectivity after treatment during internalization (SARS-CoV-2 [9]; SARS-CoV-2 moi 1, 25 μg/mL of A18, 2 h at 37 °C): did not reduce viral infectivity | IL-6 production vs RSV-infected control cells (IL-6, IL-8, and TNF-α [1]): significantly reduced | TNF-α production vs RSV-infected control cells (IL-6, IL-8, and TNF-α [1]): significantly reduced | IL-8 production vs RSV-infected control cells (IL-6, IL-8, and TNF-α [1]): significantly reduced | IL-6 production in TLR ligand-stimulated cells (IL-6, IL-8, and TNF-α [2]): significantly inhibited | IL-8 production in TLR ligand-stimulated cells (IL-6, IL-8, and TNF-α [2]): significantly inhibited | TNF-a production in TLR ligand-stimulated cells (IL-6, IL-8, and TNF-α [2]): significantly inhibited | NF-κB activation (NF-κB-LUC luciferase activity) (NF-κB signaling pathway): strongly inhibited | weight loss vs untreated infected controls (RSV line 19 and A2; Balb/c mice, RSV A2 and line 19, A18 6 mg/kg i.p. or 3 mg/kg i.n. daily days 0-4, day 2 p.i. and entire course): significantly less weight loss | RSV titers in the lung vs untreated animals (RSV line 19 and A2; Balb/c mice, RSV A2 and line 19, A18 6 mg/kg i.p. or 3 mg/kg i.n. daily, day 4 p.i.): significantly lower | lung histology, semiquantitative histological scoring (Inflammation Index) (RSV line 19 and A2; RSV A2 and line 19 infected mice, H&E-stained lungs, day 8 p.i.): significantly reduced RSV-induced pathological damage | pulmonary IFN-g levels, treated vs not treated [10]: did not observe statistical differences | pulmonary IL-4 gene expression vs untreated infected animals [10]: significantly lower levels | pulmonary IL-6 gene expression vs untreated infected animals [10]: significantly lower levels | pulmonary IL-17A gene expression vs untreated infected animals [10]: significantly lower levels | SI (ratio CC50/EC50) (HSV-1 KOS [11]): 46 | SI (ratio CC50/EC50) (HSV-1 Field [12]): 26 | SI (ratio CC50/EC50) (HSV-1 B2006 [13]): 43 | SI (ratio CC50/EC50) (SARS-CoV-2 [14]): 23 | SI (ratio CC50/EC50) (Canine Coronavirus [15]): 26 | airway hyperreactivity (AHR) [16]: alleviated airway hyperreactivity (AHR) | predicted interaction with SARS-CoV-2 spike protein (SARS-CoV-2 spike protein): interacts with spike protein | EC50 (RSV Line 19; A549, 24 h): 9.8 ± 0.08 µg/mL | EC50 (RSV Line 19; HEp-2, 24 h): 8 ± 0.1 µg/mL | EC50 (HSV-1 KOS [17]): 5.5 ± 0.1 µg/mL | EC50 (HSV-1 Field [18]): 7.6 ± 0.05 µg/mL | EC50 (HSV-1 B2006 [19]): 4.6 ± 0.05 µg/mL | EC50 (SARS-CoV-2 [20]): 8.9 ± 0.09 µg/mL | EC50 (Canine Coronavirus [21]): 7.7 ± 0.1 µg/mL

OC[C@H]1O[C@@H](Oc2cc3c(O[C@@H]4O[C@H](CO)[C@@H](O)[C@H](O)[C@H]4O)cc(O)cc3[o+]c2-c2ccc(O)c(O)c2)[C@H](O)[C@@H](O)[C@@H]1O [Cyanin]
inhibitory potential against SARS-CoV-2 via inhibition of viral main protease [22]: good inhibitory potential

O=C(O)CC(=O)OC[C@H]1O[C@@H](Oc2cc3c(O)cc(O)cc3[o+]c2-c2ccc(O)c(O)c2)[C@H](O)[C@@H](O)[C@@H]1O [Cyanidin 3-(6″-malonylglucoside)]
inhibitory potential against SARS-CoV-2 via inhibition of viral main protease [22]: good inhibitory potential
